Test results reported in ChEMBL document CHEMBL1128530, “Alpha- and beta-adrenoceptors: from the gene to the clinic. 1. Molecular biology and adrenoceptor subclassification” (J Med Chem, 1995).
pKi: −log10 of the molar value.

Experiments:
[1] = molecular target: Alpha-1B adrenergic receptor (Rattus norvegicus, UniProt P15823); test: Overall binding displacement in tissues containing only the Alpha-1B adrenergic receptor (rat spleen, rat liver); type: tissue-based
[2] = molecular target: T1, Alpha-2A adrenergic receptor (Rattus norvegicus, UniProt P22909); test: The compound was tested for binding affinity against alpha-2d-adrenoceptor, from rat clones.
T1 sequence (P22909 whole entry): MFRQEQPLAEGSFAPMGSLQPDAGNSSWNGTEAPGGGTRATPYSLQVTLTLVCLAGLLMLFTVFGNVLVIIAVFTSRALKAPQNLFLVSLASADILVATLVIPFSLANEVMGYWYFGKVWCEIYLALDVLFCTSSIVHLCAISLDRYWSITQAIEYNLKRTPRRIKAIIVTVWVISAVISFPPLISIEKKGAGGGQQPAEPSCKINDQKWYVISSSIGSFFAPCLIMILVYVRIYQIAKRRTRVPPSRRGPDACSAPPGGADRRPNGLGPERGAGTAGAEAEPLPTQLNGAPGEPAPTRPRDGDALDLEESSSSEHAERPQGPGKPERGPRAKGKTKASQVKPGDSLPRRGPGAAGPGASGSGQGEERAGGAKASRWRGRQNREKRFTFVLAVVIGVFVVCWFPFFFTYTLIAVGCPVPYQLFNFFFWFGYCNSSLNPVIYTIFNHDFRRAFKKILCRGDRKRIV

Sequence of Alpha-1B adrenergic receptor (P15823 whole entry, looked up): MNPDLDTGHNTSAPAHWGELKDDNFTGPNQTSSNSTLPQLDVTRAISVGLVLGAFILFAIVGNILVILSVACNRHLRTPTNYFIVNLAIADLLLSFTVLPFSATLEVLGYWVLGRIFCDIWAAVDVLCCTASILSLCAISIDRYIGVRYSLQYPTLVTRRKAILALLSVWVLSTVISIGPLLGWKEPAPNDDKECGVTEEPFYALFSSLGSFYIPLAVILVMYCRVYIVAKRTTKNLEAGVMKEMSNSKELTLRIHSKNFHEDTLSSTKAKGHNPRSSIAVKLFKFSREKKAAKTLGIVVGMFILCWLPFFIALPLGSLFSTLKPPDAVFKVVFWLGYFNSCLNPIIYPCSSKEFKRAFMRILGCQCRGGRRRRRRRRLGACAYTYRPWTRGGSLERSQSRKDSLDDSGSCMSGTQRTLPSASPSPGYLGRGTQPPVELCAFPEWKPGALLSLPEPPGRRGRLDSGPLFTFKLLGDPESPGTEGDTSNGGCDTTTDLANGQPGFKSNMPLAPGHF

| Structure (SMILES) | pKi [1] | pKi [2] |
| --- | --- | --- |
| COc1ccccc1N1CCN(CCCNc2c(C)c(=O)n(C)c(=O)n2C)CC1 | 7.02 | – |
| COc1cccc(OC)c1OCCNCC1COc2ccccc2O1 (configuration not stated) | – | 7.34 |
